Species: Rattus norvegicus
Test: Open TG-GATES - Regimen: Single
Type: toxicity, organism-based, Sprague-Dawley
Design: regimen Single, gender Male, age 6 weeks
Details: in vivo, po, 0 mg/kg, route gavage, dose level Control; for APTT / Bas / Eos / Fbg / Hb / Ht / Lym / MCH / MCHC / MCV / Mono / Neu / PT / Plat / RBC / Ret / WBC: tissue Blood; for KIDNEY_L / KIDNEY_R / KIDNEY_TOTAL: tissue Kidney; for LIVER: tissue Liver; for ALP / ALT / AST / CRE / DBIL / GLC / IP / K / LDH / Na / PL / RALB / TBIL / TC / TP / gamma-GTP: tissue Plasma

`Clc1ccccc1CN1CCc2sccc2C1` [TICLOPIDINE] showed a TERMINAL_BW (3 h) of 208.4 g, an APTT (3 h) of 18.6 s and a Bas (3 h) of 0%. The Eos (3 h) was 1%, the Fbg (3 h) was 221.2 mg/dL and the Hb (3 h) was 13.2 g/dL. For the same molecule, the Ht (3 h) was 37.6%, the Lym (3 h) was 73.2% and the MCH (3 h) was 21.1 pg. For the same molecule, the MCHC (3 h) was 35%, the MCV (3 h) was 60.3 fL and the Mono (3 h) was 3%. It also gave a Neu (3 h) of 21.8%, a PT (3 h) of 11.9 s and a Plat (3 h) of 123.5 x10_4/uL. The RBC (3 h) was 623.4 x10_4/ul, the Ret (3 h) was 7.9% and the WBC (3 h) was 82.6 x10_2/uL. The KIDNEY_L (3 h) was 0.9 g, the KIDNEY_R (3 h) was 0.9 g and the KIDNEY_TOTAL (3 h) was 1.9 g. It also gave an LIVER (3 h) of 9.5 g, an ALP (3 h) of 806 IU/L and an ALT (3 h) of 37.4 IU/L. It also gave an AST (3 h) of 69.2 IU/L, a CRE (3 h) of 0.4 mg/dL and a DBIL (3 h) of 0.07 mg/dL. It also gave a GLC (3 h) of 204.6 mg/dL, an IP (3 h) of 9.8 mg/dL and a K (3 h) of 3.9 meq/L. It also gave an LDH (3 h) of 129.2 IU/L, a Na (3 h) of 141.2 meq/L and a PL (3 h) of 142.4 mg/dL. The RALB (3 h) was 3.3 g/dL, the TBIL (3 h) was 0.1 mg/dL and the TC (3 h) was 79.2 mg/dL. For the same molecule, the TP (3 h) was 5.4 g/dL, the gamma-GTP (3 h) was 1.2 IU/L and the TERMINAL_BW (6 h) was 208.2 g. For the same molecule, the APTT (6 h) was 18.7 s, the Bas (6 h) was 0.2% and the Eos (6 h) was 1%. The Fbg (6 h) was 214.6 mg/dL, the Hb (6 h) was 13.4 g/dL and the Ht (6 h) was 38.1%. For the same molecule, the Lym (6 h) was 73%, the MCH (6 h) was 21.3 pg and the MCHC (6 h) was 35.2%. It also gave an MCV (6 h) of 60.3 fL, a Mono (6 h) of 3% and a Neu (6 h) of 21.4%. The PT (6 h) was 12 s, the Plat (6 h) was 123.6 x10_4/uL and the RBC (6 h) was 632.8 x10_4/ul. It also gave a Ret (6 h) of 7.7%, a WBC (6 h) of 93.2 x10_2/uL and a KIDNEY_L (6 h) of 1 g. The KIDNEY_R (6 h) was 0.9 g, the KIDNEY_TOTAL (6 h) was 1.9 g and the LIVER (6 h) was 9.1 g. It also gave an ALP (6 h) of 821 IU/L, an ALT (6 h) of 32.4 IU/L and an AST (6 h) of 68 IU/L. For the same molecule, the CRE (6 h) was 0.4 mg/dL, the DBIL (6 h) was 0.074 mg/dL and the GLC (6 h) was 183.2 mg/dL. It also gave an IP (6 h) of 9.3 mg/dL, a K (6 h) of 3.9 meq/L and an LDH (6 h) of 170.8 IU/L. For the same molecule, the Na (6 h) was 141.4 meq/L, the PL (6 h) was 126.8 mg/dL and the RALB (6 h) was 3.2 g/dL. For the same molecule, the TBIL (6 h) was 0.1 mg/dL, the TC (6 h) was 70.8 mg/dL and the TP (6 h) was 5.3 g/dL. The gamma-GTP (6 h) was 1 IU/L, the TERMINAL_BW (9 h) was 205.8 g and the APTT (9 h) was 17.9 s. It also gave a Bas (9 h) of 0%, an Eos (9 h) of 1% and a Fbg (9 h) of 222 mg/dL. It also gave a Hb (9 h) of 13.3 g/dL, a Ht (9 h) of 37.5% and a Lym (9 h) of 78.2%. It also gave an MCH (9 h) of 21.5 pg, an MCHC (9 h) of 35.6% and an MCV (9 h) of 60.5 fL. The Mono (9 h) was 2%, the Neu (9 h) was 17.8% and the PT (9 h) was 12.3 s. For the same molecule, the Plat (9 h) was 131.6 x10_4/uL, the RBC (9 h) was 620 x10_4/ul and the Ret (9 h) was 7.6%. The WBC (9 h) was 87.2 x10_2/uL, the KIDNEY_L (9 h) was 0.9 g and the KIDNEY_R (9 h) was 0.9 g. For the same molecule, the KIDNEY_TOTAL (9 h) was 1.8 g, the LIVER (9 h) was 7.9 g and the ALP (9 h) was 871.4 IU/L. The ALT (9 h) was 33.4 IU/L, the AST (9 h) was 65.6 IU/L and the CRE (9 h) was 0.4 mg/dL. It also gave a DBIL (9 h) of 0.072 mg/dL, a GLC (9 h) of 193.8 mg/dL and an IP (9 h) of 10 mg/dL. It also gave a K (9 h) of 3.7 meq/L, an LDH (9 h) of 128.4 IU/L and a Na (9 h) of 141.8 meq/L. The PL (9 h) was 130.8 mg/dL, the RALB (9 h) was 3.3 g/dL and the TBIL (9 h) was 0.1 mg/dL. For the same molecule, the TC (9 h) was 74 mg/dL, the TP (9 h) was 5.4 g/dL and the gamma-GTP (9 h) was 1 IU/L. It also gave a TERMINAL_BW (24 h) of 221.4 g, an APTT (24 h) of 20.8 s and a Bas (24 h) of 0.8%. The Eos (24 h) was 0.8%, the Fbg (24 h) was 228.6 mg/dL and the Hb (24 h) was 13.7 g/dL. It also gave a Ht (24 h) of 38.7%, a Lym (24 h) of 75% and an MCH (24 h) of 21.5 pg. It also gave an MCHC (24 h) of 35.4%, an MCV (24 h) of 60.7 fL and a Mono (24 h) of 3.6%. For the same molecule, the Neu (24 h) was 19.2%, the PT (24 h) was 11.9 s and the Plat (24 h) was 130.5 x10_4/uL. It also gave an RBC (24 h) of 638 x10_4/ul, a Ret (24 h) of 6.5% and a WBC (24 h) of 110.6 x10_2/uL. For the same molecule, the KIDNEY_L (24 h) was 1 g, the KIDNEY_R (24 h) was 1 g and the KIDNEY_TOTAL (24 h) was 1.9 g. The LIVER (24 h) was 10.1 g, the ALP (24 h) was 880.2 IU/L and the ALT (24 h) was 43.8 IU/L. For the same molecule, the AST (24 h) was 73.6 IU/L, the CRE (24 h) was 0.4 mg/dL and the DBIL (24 h) was 0.074 mg/dL. The GLC (24 h) was 198.2 mg/dL, the IP (24 h) was 8.5 mg/dL and the K (24 h) was 3.7 meq/L. For the same molecule, the LDH (24 h) was 142.2 IU/L, the Na (24 h) was 141.8 meq/L and the PL (24 h) was 134.2 mg/dL. For the same molecule, the RALB (24 h) was 3.4 g/dL, the TBIL (24 h) was 0.1 mg/dL and the TC (24 h) was 70 mg/dL. The TP (24 h) was 5.5 g/dL and the gamma-GTP (24 h) was 1 IU/L.

Reference: ChEMBL document CHEMBL3885861, “Open TG-GATES”
